1 compound from patent publication US8338472B2, “Hexahydrocyclopentyl[F]indazole carboxamides and derivatives thereof as selective glucocorticoid receptor modulators” (Merck Sharp & Dohme Corp., priority 2008, dated 2012) can be followed below.

pEC50, pKi: −log10 of the molar value. Read-outs that look alike come from different tables or passages of the source.

Experiment [1] has as its target T1, Glucocorticoid Receptor (Homo sapiens, UniProt P04150).
T1 construct: These cells express large amount of the GR and are very responsive to GC treatment; endogenous in cells; host or cells: A549 cells transiently transfected with the MMTV-LUC reporter
T1 sequence (P04150 1-777): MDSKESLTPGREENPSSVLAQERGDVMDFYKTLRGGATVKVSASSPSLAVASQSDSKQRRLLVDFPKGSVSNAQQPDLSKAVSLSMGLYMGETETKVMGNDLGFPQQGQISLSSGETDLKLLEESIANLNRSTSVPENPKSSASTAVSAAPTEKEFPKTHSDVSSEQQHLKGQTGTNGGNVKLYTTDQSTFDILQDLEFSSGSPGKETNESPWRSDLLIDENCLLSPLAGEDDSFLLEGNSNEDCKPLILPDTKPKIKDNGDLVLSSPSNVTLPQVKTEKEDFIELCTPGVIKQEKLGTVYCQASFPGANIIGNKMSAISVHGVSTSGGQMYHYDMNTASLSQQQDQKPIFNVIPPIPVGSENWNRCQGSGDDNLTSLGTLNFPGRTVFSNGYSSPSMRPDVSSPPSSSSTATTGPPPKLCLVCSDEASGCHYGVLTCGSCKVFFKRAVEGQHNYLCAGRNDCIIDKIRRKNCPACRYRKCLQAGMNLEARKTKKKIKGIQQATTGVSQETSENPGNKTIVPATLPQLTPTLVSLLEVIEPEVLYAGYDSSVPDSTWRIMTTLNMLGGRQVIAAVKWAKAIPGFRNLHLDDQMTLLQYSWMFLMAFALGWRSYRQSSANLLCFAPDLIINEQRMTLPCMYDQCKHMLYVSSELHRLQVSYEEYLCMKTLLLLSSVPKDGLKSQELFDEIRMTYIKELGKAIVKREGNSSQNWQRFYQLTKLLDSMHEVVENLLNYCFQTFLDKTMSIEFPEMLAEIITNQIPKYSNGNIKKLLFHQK
Put plainly: Trans-Activation Modulation of Glucocorticoid Receptor (GRAMMER), MMTV-LUC reporter gene in A549 cells. Format: cell-based. The note with it: Table 1. Put shortly:
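Luciferase from a transiently transfected MMTV-LUC reporter was measured after 24 h compound exposure (≤1% DMSO) in A549 or MDA-MB-453 cells. For antagonism, the decrease of 10 nM dexamethasone-induced signal was calculated. For agonism, Emax was referenced to 300 nM dexamethasone.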

The target of experiment [2] is T2, human GR (Homo sapiens, UniProt P04150).
T2 construct: U937 cells contain an endogenous glucocorticoid receptor (GR); endogenous in cells; host or cells: U937 cells stably transfected with the TNF-alpha promoter/beta-lactamase reporter
T2 sequence (P04150 1-777): T1 sequence (P04150 1-777)
Put plainly: Transrepression Assay (GITAR), TNFα-β-lactamase reporter gene in U937 cells. The class given is cell-based. Put shortly: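 Repression of PMA (5 ng/ml final)/LPS (100 ng/ml final)-induced TNF-α promoter activity, read as β-lactamase cleavage of CCF2-AM, in stably transfected U937 cells expressing native GR. Compound added 30-45 min before stimulation, overnight (~18 hr) 37° C; normalized to 100 nM dexamethasone (100%).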
In general terms: A reporter such as luciferase makes a cellular process visible.

Experiment [3] deals with T3, glucocorticoid receptor (GR) (Homo sapiens, UniProt P04150).
T3 sequence (P04150 1-777): T1 sequence (P04150 1-777)
Briefly: Ligand binding assay (GR BIND), 3H-dexamethasone displacement in MDA-MB-453 cell lysate. As to conditions: GR BIND Ki, Table 1.

As usually defined, the pKi is −log10 of the Ki, conventionally taken in molar units. A low value points to a high Ki. As for `C[C@]12Cc3cnn(-c4ccc(F)cc4)c3C=C1CC[C@@H]2C(=O)N1CCCCC1Cc1ccccc1` (stereo partly drawn) [Compound 22, (4αR,5S)-5-[(2-benzylpiperidin-1-yl)carbonyl]-1-(4-fluorophenyl)-4α-methyl-1,4,4α,5,6,7-hexahydrocyclopenta[f]indazole], the Emax in experiment [1] (A549, A549 cells, Emax relative to 300 nM dexamethasone, read-out: Transactivation A549 Cells GRAMMER Emax) is 5.5%; in experiment [2] (U-937, U937 cells, activity repressed by 100 nM dexamethasone = 100%, Table 1, read-out: Transrepression U937 Cells GITAR Emax), 17.3%; in experiment [2] (U-937, text statement, 100 nM dexamethasone = 100%, read-out: maximal activity in the transrepression assay (GITAR)), over 5%. Moreover, the pEC50 in experiment [1] (inflection point, A549 cells, read-out: Transactivation A549 Cells GRAMMER IP) was 6.41; in experiment [2] (inflection point, U937 cells, Table 1, read-out: Transrepression U937 Cells GITAR IP), 5.70. For the same compound, the “GITAR Greater than by GRAMMER % SEP” value in experiment [2] (GITAR Emax minus GRAMMER Emax, Table 1) stood at 11.7%. This compound gave a pKi in experiment [3] of 8.32.
